Reference: article PMC5561212, “In Vitro Micropatterned Human Pluripotent Stem Cell Test (µP-hPST) for Morphometric-Based Teratogen Screening” (Scientific Reports, 2017)
Converted amounts (≈) assume the structure as drawn. “Also recorded” adds a separate entry of the source. Like-named read-outs stand apart in the source and are kept apart here.

Legend:
[1] = tested on: µP-hPSC colonies (H9) under mesoendoderm induction; experiment: µP-hPST: mesoendoderm pattern disruption in µP-hPSC colonies and two-step teratogen classification; details: for Teratogenicity in µP-hPST (in words) / Teratogenicity in µP-hPST: two-step classification rule; for Mesoendoderm pattern disruption seen in T fluorescent images: 3 days of compound exposure, in words
[2] = cited from earlier work
[3] = tested on: adult human dermal fibroblasts (aHDF); experiment: Cytotoxicity assay (MTS), general cytotoxicity; format: cell-based; details: aHDF cells, 3 days, 25% inhibitory concentration
Method: (§1) A set of 30 compounds of known teratogenicity was selected to establish and validate the µP-hPST (Table 1). The compounds include equal number of non-teratogens and teratogens, and differ in chemical property and therapeutic usage. Before tested in the µP-hPSC colonies, the cytotoxicity profile of each compound was acquired. Two cell lines, hPSC line H9 and adult human dermal fibroblast line aHDF, were tested to represent embryonic cytotoxicity and general cytotoxicity of the compound respectively (Supplementary Figs S1, S2). The IC25 values, which were the 25% inhibitory concentrations, were calculated as the highest non-cytotoxic concentrations of the compound (Table 2, Fig. 1).
(§2) Human embryonic cell line H9 (WiCell Research Institute, Inc) and adult human dermal fibroblast (aHDF, Lonza) were cultured as previously described. Briefly, H9 cells were cultured in tissue culture plates coated with Matrigel^TM (354277, BD Biosciences) in mTeSR^TM1 medium (05850, StemCell^TM Technologies). Dispase (07923, StemCell^TM Technologies) treatment and mechanical scraping were applied during normal subculture. The aHDF cells was cultured in DMEM medium (10569-010, Gibco), supplemented with 10% FBS (SV30160.03, Thermo Scientific Hyclone) and 1% Pen-Strep (09367-34, Nacalai Tesque). Cells were subcultured every 5–6 days using 0.25% Trypsion-EDTA (25200-114, Gibco) to detach the cells.
(§3) The adverse effect of test compounds on cell proliferation and viability was detected using CellTiter 96® AQueous One Solution Cell Proliferation Assay (MTS, G3580, Promega). 10,000 H9 cells or 500 aHDF cells were seeded in 96-well tissue culture plates. For H9 cells, Matrigel^TM was coated before seeding. For each compound, 8 concentrations from serial 5-fold dilutions were tested besides the vehicle controls. Cells were cultured for 3 days with medium half change every day before cell viability was measured. Each drug was tested in three independent runs and its IC25 values (inhibitory concentrations which can cause 25% of reduction in cell number) were acquired by logistic regression using OriginPro 9.

[4] = tested on: human embryonic cell line H9; experiment: Cytotoxicity assay (MTS), embryonic cytotoxicity; format: cell-based; details: H9 cells, 3 days, 25% inhibitory concentration
Method: as §1, §2, §3

hPSC = tested on: hPSC; design: method as in PMID 24123775; details: cited from earlier work
[5] = cited from earlier work; for In vivo teratogenicity (in words): Supplementary Tables S2, S3; for In vivo teratogenicity: Table 1, known teratogenicity
[6] = human plasma, ref U.S. FDA website, EMA website or published journals (Supplementary Table S1)

SMILES: CC1(C)S[C@@H]2[C@H](NC(=O)Cc3ccccc3)C(=O)N2[C@H]1C(=O)O [Penicillin G]
- Teratogenicity in µP-hPST (in words) [1]: Non-teratogen
- Cmax ([2]; compounds tested previously): 400000 ng/mL

SMILES: Nc1nc2ncc(CNc3ccc(C(=O)N[C@@H](CCC(=O)O)C(=O)O)cc3)nc2c(=O)[nH]1 [Folic acid]
- IC25aHDF [3]: 894 µg/mL (≈ 2030 µM)
- IC25H9 [4]: 888 µg/mL (≈ 2010 µM)
- Teratogenicity in µP-hPST [1]: NON
- Cmax [2, 6]: 270 ng/mL

SMILES: CS(=O)(=O)OCCCCOS(C)(=O)=O [Busulfan]
- Teratogenicity in other in vitro assays (hPSC): TER[6]
- IC25aHDF [3]: 19.2 µg/mL (≈ 78 µM)
- IC25H9 [4]: 0.5 µg/mL (≈ 2.03 µM)
- In vivo teratogenicity (in words) [5]: Teratogen
- In vivo teratogenicity [5]: TER
- Mesoendoderm pattern disruption seen in T fluorescent images [1]: much smaller and concentrated mesoendoderm patterns were observed
- Teratogenicity in µP-hPST [1]: TER
- Cmax [2, 6]: 1220 ng/mL

SMILES: O=C1NC(=O)C(c2ccccc2)(c2ccccc2)N1 [Diphenylhydantoin]
- Classification in the Targeted Biomarker Assay (in words) (hPSC): misclassified
- Teratogenicity in other in vitro assays (hPSC): NON[6]
- IC25aHDF [3]: 140 µg/mL (≈ 555 µM)
- IC25H9 [4]: 56 µg/mL (≈ 222 µM)
- In vivo teratogenicity (in words) [5]: Teratogen
- In vivo teratogenicity [5]: TER
- Anomalies known to be induced [5]: orofacial, limb, cardiovascular and neurobehavioral anomalies
- Mesoendoderm pattern disruption seen in T fluorescent images [1]: slow down or prevent mesoendoderm cell migration
- Teratogenicity in µP-hPST [1]: TER
- Teratogenicity in µP-hPST (in words) [1]: correctly classify; also recorded: detect the teratogenic effects
- Cmax [2, 6]: 20000 ng/mL

SMILES: CN(C)CCOC(c1ccccc1)c1ccccc1 [Diphenhydramine]
- IC25aHDF [3]: 31.4 µg/mL (≈ 123 µM)
- IC25H9 [4]: 2.4 µg/mL (≈ 9.4 µM)
- Teratogenicity in µP-hPST [1]: NON

SMILES: O=C1O[C@H]([C@@H](O)CO)C(O)=C1O [Ascorbic acid]
- IC25aHDF [3]: 63 µg/mL (≈ 358 µM)
- IC25H9 [4]: 105 µg/mL (≈ 596 µM)
- Teratogenicity in µP-hPST [1]: NON
- Cmax [2, 6]: 156000 ng/mL

SMILES: CCOC(=O)N1CCC(=C2c3ccc(Cl)cc3CCc3cccnc32)CC1 [Loratadine]
- Teratogenicity in other in vitro assays (hPSC): NON[6]
- IC25aHDF [3]: 3.2 µg/mL (≈ 8.36 µM)
- IC25H9 [4]: 24 µg/mL (≈ 62.7 µM)
- In vivo teratogenicity [5]: NON

SMILES: Nc1nc2c(ncn2COCCO)c(=O)[nH]1 [Acyclovir]
- IC25aHDF [3]: 285 µg/mL (≈ 1270 µM)
- IC25H9 [4]: 267 µg/mL (≈ 1190 µM)
- Cmax [2, 6]: 5650 ng/mL

SMILES: Cn1c(=O)c2c(ncn2C)n(C)c1=O [Caffeine]
- IC25aHDF [3]: 129 µg/mL (≈ 664 µM)
- IC25H9 [4]: 85.4 µg/mL (≈ 440 µM)
- Cmax [2, 6]: 10000 ng/mL

SMILES: COc1ccccc1Oc1c(NS(=O)(=O)c2ccc(C(C)(C)C)cc2)nc(-c2ncccn2)nc1OCCO [Bosentan]
- Classification in the Targeted Biomarker Assay (in words) (hPSC): misclassified
- Teratogenicity in other in vitro assays (hPSC): NON[6]
- IC25aHDF [3]: 19.9 µg/mL (≈ 36.1 µM)
- IC25H9 [4]: 43.8 µg/mL (≈ 79.4 µM)
- In vivo teratogenicity (in words) [5]: Teratogen
- In vivo teratogenicity [5]: TER
- Teratogenicity in µP-hPST [1]: TER
- Teratogenicity in µP-hPST (in words) [1]: correctly classify
- Cmax [2, 6]: 8170 ng/mL

SMILES: CC[C@H](C)C(=O)O[C@H]1C[C@@H](C)C=C2C=C[C@H](C)[C@H](CC[C@@H]3C[C@@H](O)CC(=O)O3)[C@H]21 [Lovastatin]
- Classification in the Targeted Biomarker Assay (in words) (hPSC): misclassified
- Teratogenicity in other in vitro assays (hPSC): NON[6]
- IC25aHDF [3]: 0.68 µg/mL (≈ 1.68 µM)
- In vivo teratogenicity (in words) [5]: Teratogen
- In vivo teratogenicity [5]: TER
- Mesoendoderm pattern disruption seen in T fluorescent images [1]: promote cell migration
- Teratogenicity in µP-hPST [1]: TER
- Teratogenicity in µP-hPST (in words) [1]: correctly classify
- Cmax [2, 6]: 10 ng/mL

SMILES: Cn1cc[nH]c1=S [Methimazole]
- IC25aHDF [3]: >1000 µg/mL
- IC25H9 [4]: 252 µg/mL (≈ 2210 µM)
- In vivo teratogenicity (in words) [5]: Teratogen
- In vivo teratogenicity [5]: TER
- Mesoendoderm pattern disruption seen in T fluorescent images [1]: promote mesoendoderm differentiation while decrease collective cell migration
- Teratogenicity in µP-hPST [1]: TER

SMILES: Cc1ncc(C[n+]2csc(CCO)c2C)c(N)n1 [Thiamine]
- Teratogenicity in other in vitro assays (hPSC): NON[6]
- IC25aHDF [3]: >1000 µg/mL
- IC25H9 [4]: >1000 µg/mL
- In vivo teratogenicity (in words) [5]: Non-teratogen
- In vivo teratogenicity [5]: NON
- Mesoendoderm pattern disruption seen in T fluorescent images [1]: slow down or prevent mesoendoderm cell migration
- Teratogenicity in µP-hPST [1]: NON
- Cmax [2, 6]: 110 ng/mL

SMILES: Cc1ccc(NC(=O)c2ccc(CN3CCN(C)CC3)cc2)cc1Nc1nccc(-c2cccnc2)n1 [Imatinib]
- IC25aHDF [3]: 2.7 µg/mL (≈ 5.47 µM)
- IC25H9 [4]: 19.5 µg/mL (≈ 39.5 µM)
- Cmax [2, 6]: 1560 ng/mL

SMILES: CC(=O)Nc1ccc(O)cc1 [Acetaminophen]
- Teratogenicity in other in vitro assays (hPSC): NON[6]
- IC25aHDF [3]: 40 µg/mL (≈ 265 µM)
- IC25H9 [4]: 171 µg/mL (≈ 1130 µM)
- In vivo teratogenicity [5]: NON
- Cmax [2, 6]: 24000 ng/mL

SMILES: N[C@@H](CC(=O)N1CCn2c(nnc2C(F)(F)F)C1)Cc1cc(F)c(F)cc1F [Sitagliptin]
- Teratogenicity in other in vitro assays (hPSC): NON[6]
- IC25aHDF [3]: 77.1 µg/mL (≈ 189 µM)
- IC25H9 [4]: 359 µg/mL (≈ 881 µM)
- In vivo teratogenicity [5]: NON
- Teratogenicity in µP-hPST [1]: NON
- Cmax [2, 6]: 390 ng/mL

SMILES: CN(C)CCOC(C)(c1ccccc1)c1ccccn1 (stereo not drawn) [Doxylamine]
- IC25aHDF [3]: 45 µg/mL (≈ 166 µM)
- IC25H9 [4]: 87 µg/mL (≈ 322 µM)
- Teratogenicity in µP-hPST [1]: NON
- Cmax [2, 6]: 120 ng/mL

SMILES: NC(=O)N1c2ccccc2C=Cc2ccccc21 [Carbamazepine]
- Teratogenicity in other in vitro assays (hPSC): TER[6]
- IC25aHDF [3]: 28 µg/mL (≈ 119 µM)
- IC25H9 [4]: 21 µg/mL (≈ 88.9 µM)
- In vivo teratogenicity (in words) [5]: Teratogen
- In vivo teratogenicity [5]: TER
- Defects caused in newborns [5]: neural tube defects, cardiovascular and urinary tract anomalies, and cleft palate
- Mesoendoderm pattern disruption seen in T fluorescent images [1]: decrease both cell differentiation and migration
- Teratogenicity in µP-hPST [1]: TER
- Teratogenicity in µP-hPST (in words) [1]: detect the teratogenic effects
- Cmax [2, 6]: 11000 ng/mL

SMILES: NNC(=O)c1ccncc1 [Isoniazid]
- Teratogenicity in other in vitro assays (hPSC): NON[6]
- IC25aHDF [3]: 488 µg/mL (≈ 3560 µM)
- IC25H9 [4]: 370 µg/mL (≈ 2700 µM)
- In vivo teratogenicity [5]: NON
- Teratogenicity in µP-hPST [1]: NON
- Cmax [2, 6]: 3090 ng/mL

SMILES: CCN(CC)CCNC(=O)c1cc(Cl)c(N)cc1OC [Metoclopramide]
- Teratogenicity in other in vitro assays (hPSC): NON[6]
- IC25aHDF [3]: 154 µg/mL (≈ 514 µM)
- IC25H9 [4]: 162 µg/mL (≈ 540 µM)
- In vivo teratogenicity (in words) [5]: Non-teratogen
- In vivo teratogenicity [5]: NON
- Teratogenicity in µP-hPST [1]: NON
- Cmax [2, 6]: 40 ng/mL

SMILES: CC1(C)S[C@@H]2[C@H](NC(=O)[C@H](N)c3ccc(O)cc3)C(=O)N2[C@H]1C(=O)O [Amoxicillin]
- Teratogenicity in other in vitro assays (hPSC): NON[6]
- IC25aHDF [3]: >1000 µg/mL
- IC25H9 [4]: >1000 µg/mL
- In vivo teratogenicity (in words) [5]: Non-teratogen
- In vivo teratogenicity [5]: NON
- Teratogenicity in µP-hPST [1]: NON
- Cmax [2, 6]: 14400 ng/mL

SMILES: COc1cc2ncnc(Nc3ccc(F)c(Cl)c3)c2cc1OCCCN1CCOCC1 [Gefitinib]
- IC25aHDF [3]: 1.66 µg/mL (≈ 3.71 µM)
- IC25H9 [4]: 4.6 µg/mL (≈ 10.3 µM)
- Teratogenicity in µP-hPST [1]: TER
- Cmax [2, 6]: 930 ng/mL
